Experimental data: patent publication US20230131535A1, “ARYLMETHYLENE AROMATIC COMPOUNDS AS Kv1.3 POTASSIUM SHAKER CHANNEL BLOCKERS” (D. E. Shaw Research, LLC, priority 2019, published 2023)
Like-named read-outs stand apart in the source and are kept apart here.

Molecular target: T1, Kv1.3 potassium channel (Homo sapiens, UniProt P22001)
T1 construct: expressed in transfected cells
Assay: Kv1.3 potassium channel blocker activity, automated whole-cell patch clamp (Patchliner)
Assay type: cell-based
Conditions: CHO-K1 cells stably expressing Kv1.3, whole cell current, pulses -90 mV to +40 mV, read-out: Kv1.3_IC50
Method: Example 67. Evaluation of Kv1.3 Potassium Channel Blocker Activities
The assay described below is used to evaluate the disclosed compound's activities as Kv1.3 potassium channel blockers.
CHO-K1 cells stably expressing Kv1.3 were grown in DMEM containing 10% heat-inactivated FBS, 1 mM Sodium Pyruvate, 2 mM L-Glutamine and G418 (500 μg/ml). Cells were grown in culture flasks at 37° C. in a 5% CO2-humidified incubator.
The cells were bathed in an extracellular solution containing 140 mM NaCl, 4 mM KCl, 2 mM CaCl2), 1 mM MgCl2, 5 mM Glucose, 10 mM HEPES; pH adjusted to 7.4 with NaOH; 295-305 mOsm. The internal solution contained 50 mM KCl, 10 mM NaCl, 60 mM KF, 20 mM EGTA, 10 mM HEPES; pH adjusted to 7.2 with KOH; 285 mOsm. All compounds were dissolved in DMSO at 30 mM. Compound stock solutions were freshly diluted with external solution to concentrations of 30 nM, 100 nM, 300 nM, 1 μM, 3 μM, 10 μM, 30 μM and 100 μM. The highest content of DMSO (0.3%) was present in 100 μM.
The currents were evoked by applying 100 ms depolarizing pulses from −90 mV (holding potential) to +40 mV were applied with 0.1 Hz frequency. Control (compound-free) and compound pulse trains for each compound concentration applied contained 20 pulses. 10 second breaks were used between pulse trains (see Table 4 below).
Whole cell current recordings and compound application were enabled by means of an automated patch clamp platform Patchliner (Nanion Technologies GmbH). EPC 10 patch clamp amplifier (HIEKA Elektronik Dr. Schulze GmbH) along with Patchmaster software (HIEKA Elektronik Dr. Schulze GmbH) was used for data acquisition. Data were sampled at 10 kHz without filtering. Passive leak currents were subtracted online using a P/4 procedure (HEKA Elektronik Dr. Schulze GmbH). Increasing compound concentrations were applied consecutively to the same cell without washouts in between. Total compound incubation time before the next pulse train was not longer than 10 seconds. Peak current inhibition was observed during compound equilibration.
AUC and peak values were obtained with Patchmaster (HEKA Elektronik Dr. Schulze GmbH). To determine IC50, the last single pulse in the pulse train corresponding to a given compound concentration was used. Obtained AUC and peak values in the presence of compound were normalized to control values in the absence of compound. Using Origin (OridinLab), IC50 was derived from data fit to Hill equation: Icompound/Icontrol=(100−A)/(1+([compound]/IC50)nH)+A, where IC50 value is the concentration at which current inhibition is half-maximal, [compound] is the applied compound concentration, A is the fraction of current that is not blocked and nH is the Hill coefficient.

T1 sequence (P22001 whole entry): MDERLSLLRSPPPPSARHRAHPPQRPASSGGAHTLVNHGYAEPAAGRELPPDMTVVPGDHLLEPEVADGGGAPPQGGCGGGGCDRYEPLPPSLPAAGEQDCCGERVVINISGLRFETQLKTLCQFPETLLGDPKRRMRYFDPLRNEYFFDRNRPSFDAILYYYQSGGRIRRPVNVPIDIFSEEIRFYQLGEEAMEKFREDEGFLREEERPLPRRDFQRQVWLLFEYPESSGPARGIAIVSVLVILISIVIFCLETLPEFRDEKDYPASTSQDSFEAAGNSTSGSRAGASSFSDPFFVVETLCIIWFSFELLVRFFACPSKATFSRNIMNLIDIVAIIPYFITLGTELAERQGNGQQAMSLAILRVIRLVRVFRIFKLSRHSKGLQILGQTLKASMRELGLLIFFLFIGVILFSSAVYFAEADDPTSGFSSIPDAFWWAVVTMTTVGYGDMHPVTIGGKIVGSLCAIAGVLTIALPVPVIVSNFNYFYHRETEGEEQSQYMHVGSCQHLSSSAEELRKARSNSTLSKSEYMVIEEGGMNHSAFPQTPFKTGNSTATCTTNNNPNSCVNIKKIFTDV

| IC50 (Table 7) [µM] | IC50 (Table 6) [µM] | Structure (SMILES) |
| --- | --- | --- |
| < 10 |  | C[C@H](NC(=O)[C@H](O)CO)c1c(O)ccc(Cl)c1Cl [Compound 84, (2R)-N-[(1S)-1-(2,3-dichloro-6-hydroxyphenyl)ethyl]-2,3-dihydroxypropan-amide] |
|  | < 30 | O=C(N[C@@H](c1ccncc1)c1c(O)ccc(Cl)c1Cl)[C@@H]1CCCN1 (single isomer, unassigned) [Compound 65] |
|  | < 10 | Oc1ccc(Cl)c(Cl)c1C(O)c1cccc2[nH]ccc12 (centres unmarked) [Compound 51, 3,4-dichloro-2-[hydroxy(1H-indol-4-yl)methyl]phenol] |
|  | < 10 | NC(=O)c1ccc(C(N)c2cc(Cl)c(Cl)cc2O)cc1 (centres unmarked) [Compound 13, 4-[amino(4,5-dichloro-2-hydroxyphenyl)methyl]benzamide] |
|  | < 10 | N#Cc1cc(C(O)c2c(O)ccc(Cl)c2Cl)ccn1 (centres unmarked) [Compound 30, 4-[(2,3-dichloro-6-hydroxyphenyl)(hydroxy)methyl]pyridine-2-carbonitrile] |
|  | < 10 | Nc1ccc(Cl)c(Cl)c1C(=O)c1ccncc1 [Compound 62, 3,4-dichloro-2-(pyridine-4-carbonyl)aniline] |
| < 10 |  | C[C@H](NC(=O)[C@@H](O)CO)c1c(O)ccc(Cl)c1Cl [Compound 85, (2S)-N-[(1S)-1-(2,3-dichloro-6-hydroxyphenyl)ethyl]-2,3-dihydroxypropan-amide] |
| < 10 |  | Cc1cc(O)c(C(N)CNC(=O)CO)cc1Cl (centres unmarked) [Compound 96, N-[2-amino-2-(5-chloro-2-hydroxy-4-methylphenyl)ethyl]-hydroxyacetamide] |
| < 10 |  | C[C@@H](NC(=O)[C@@H]1CCCNC1)c1c(O)ccc(Cl)c1Cl [Compound 79, (3R)-N-[(1R)-1-(2,3-dichloro-6-hydroxyphenyl)ethyl]piperidine-3-carboxamide] |
|  | < 10 | Oc1ccc(Cl)c(Cl)c1C(O)c1cn[nH]c1 (centres unmarked) [Compound 56, 3,4-dichloro-2-[hydroxy(1H-pyrazol-4-yl)methyl]phenol] |
|  | < 10 | Oc1ccc2ccccc2c1C(O)c1ccncc1 (centres unmarked) [Compound 32, 1-[hydroxyl(pyridin-4-yl)methyl]naphthalen-2-ol] |
|  | < 30 | COc1ccc(Cl)c(Cl)c1C(N)c1ccncc1 (centres unmarked) [Compound 70, 1-(2,3-dichloro-6-methoxyphenyl)-1-(pyridin-4-yl)methanamine] |
|  | < 10 | Oc1ccc(Cl)c(Cl)c1C(O)c1ccncn1 (centres unmarked) [Compound 55, 3,4-dichloro-2-[hydroxy(pyrimidin-4-yl)methyl]phenol] |
|  | < 30 | CC(C)C(=O)NC(c1ccncc1)c1c(O)ccc(Cl)c1Cl (centres unmarked) [Compound 69, N-[(2,3-dichloro-6-hydroxyphenyl)(pyridin-4-yl)methyl]-2-methylpropanamide] |
|  | < 30 | NCc1cc(C(O)c2c(O)ccc(Cl)c2Cl)ccn1 (single isomer, unassigned) [Compound 47, 2-((2-(aminomethyl)pyridin-4-yl)(hydroxy)methyl)-3,4-dichlorophenol] |
|  | < 10 | NC(c1cn[nH]c1)c1cc(Cl)c(Cl)cc1O (centres unmarked) [Compound 10, 2-[amino(1H-pyrazol-4-yl)methyl]-4,5-dichlorophenol] |
| < 1 |  | C[C@@H](NC(=O)C1CNC1)c1c(O)ccc(Cl)c1Cl [Compound 77, N-[(1R)-1-(2,3-dichloro-6-hydroxyphenyl)ethyl]azetidine-3-carboxamide] |
|  | < 10 | NC(=O)c1cc(Cc2c(O)ccc(Cl)c2Cl)ccn1 [Compound 24, 4-[(2,3-dichloro-6-hydroxyphenyl)methyl]pyridine-2-carboxamide] |
|  | < 10 | Cc1cc(C(O)c2c(O)ccc(Cl)c2Cl)ccn1 (centres unmarked) [Compound 35, 3,4-dichloro-2-[hydroxy(2-methylpyridin-4-yl)methyl]phenol] |
|  | < 30 | Oc1ccc(Cl)c(Cl)c1C(O)c1ccc2[nH]ccc2c1 (centres unmarked) [Compound 52, 3,4-dichloro-2-[hydroxy(1H-indol-5-yl)methyl]phenol] |
| < 1 |  | C[C@H](NC(=O)[C@H]1CCNC1)c1c(O)ccc(Cl)c1Cl [Compound 93, (3S)-N-[(1S)-1-(2,3-dichloro-6-hydroxyphenyl)ethyl]pyrrolidine-3-carboxamide] |

| IC50 (Table 7) [µM] | IC50 (Table 6) [µM] | Structure (SMILES) |
| --- | --- | --- |
| < 10 |  | CC(NC(=O)C1CNCCO1)c1c(O)ccc(Cl)c1Cl (centres unmarked) [Compound 92, N-[1-(2,3-dichloro-6-hydroxyphenyl)ethyl]morpholine-2-carboxamide] |
|  | < 10 | Oc1ccc(Cl)c(Cl)c1C(O)c1ccc2cc[nH]c2c1 (centres unmarked) [Compound 48, 3,4-dichloro-2-[hydroxy(1H-indol-6-yl)methyl]phenol] |
|  | < 30 | Oc1ccc(Cl)c(Cl)c1C(O)c1c[nH]c2ccccc12 (centres unmarked) [Compound 59, 3,4-dichloro-2-[hydroxy(1H-indol-3-yl)methyl]phenol] |
|  | < 10 | NC(=O)c1cnccc1Cc1cc(Cl)c(Cl)cc1O [Compound 4, 4-[(4,5-dichloro-2-hydroxyphenyl)methyl]pyridine-3-carboxamide] |
|  | < 1 | CN1CC(C(=O)NC(c2ccncc2)c2c(O)ccc(Cl)c2Cl)C1 (single isomer, unassigned) [Compound 72, N-[(2,3-dichloro-6-hydroxyphenyl)(pyridin-4-yl)methyl]-1-methylazetidine-3-carboxamide] |
| < 1 |  | C[C@H](NC(=O)C1CCNCC1)c1c(O)ccc(Cl)c1Cl [Compound 90, N-[(1S)-1-(2,3-dichloro-6-hydroxyphenyl)ethyl]piperidine-4-carboxamide] |
|  | < 30 | Cn1cc(C(c2ccncc2)c2c(O)ccc(Cl)c2Cl)cn1 (centres unmarked) [Compound 74, 3,4-dichloro-2-[(1-methyl-1H-pyrazol-4-yl)(pyridin-4-yl)methyl]phenol] |
| < 10 |  | C[C@H](NC(=O)CO)c1c(O)ccc(Cl)c1Cl [Compound 83, N-[(1S)-1-(2,3-dichloro-6-hydroxyphenyl)ethyl]-2-hydroxyacetamide] |
|  | < 10 | CC(=O)NCc1cc(C(O)c2c(O)ccc(Cl)c2Cl)ccn1 (centres unmarked) [Compound 33, N-([4-[(2,3-dichloro-6-hydroxyphenyl)(hydroxy)methyl]pyridin-2-yl]methyl)acetamide] |
|  | < 10 | CC(c1ccncc1)c1c(O)ccc(Cl)c1Cl (centres unmarked) [Compound 25, 3,4-dichloro-2-[1-(pyridin-4-yl)ethyl]phenol] |
|  | < 10 | N#Cc1ccc(C(N)c2cc(Cl)c(Cl)cc2O)cc1 (centres unmarked) [Compound 16, 4-[amino(4,5-dichloro-2-hydroxyphenyl)methyl]benzonitrile] |
| < 10 |  | C[C@H](NC(=O)[C@H]1CCCNC1)c1c(O)ccc(Cl)c1Cl [Compound 80, (3S)-N-[(1S)-1-(2,3-dichloro-6-hydroxyphenyl)ethyl]piperidine-3-carboxamide] |
|  | < 10 | Oc1ccc(Cl)c(Cl)c1C(O)c1ccnc(N2CCOCC2)c1 (centres unmarked) [Compound 58, 3,4-dichloro-2-[hydroxy[2-(morpholin-4-yl)pyridin-4-yl]methyl]phenol] |
|  | < 10 | Nc1ccc(C(N)c2c(O)ccc(Cl)c2Cl)cn1 (centres unmarked) [Compound 14, 2-[amino(6-aminopyridin-3-yl)methyl]-3,4-dichlorophenol] |
|  | < 30 | Nc1cc(C(O)c2c(O)ccc(Cl)c2Cl)ccn1 (single isomer, unassigned) [Compound 44, 2-[(2-aminopyridin-4-yl)(hydroxy)methyl]-3,4-dichlorophenol] |
|  | < 10 | O=C(N[C@@H](c1ccncc1)c1c(O)ccc(Cl)c1Cl)[C@H]1CCCN1 (single isomer, unassigned) [Compound 67] |
|  | < 10 | Nc1ccc(C(N)c2cc(Cl)c(Cl)cc2O)cn1 (centres unmarked) [Compound 12, 2-[amino(6-aminopyridin-3-yl)methyl]-4,5-dichlorophenol] |
|  | < 30 | Cc1cnccc1C(O)c1c(O)ccc(Cl)c1Cl (single isomer, unassigned) [Compound 43, 3,4-dichloro-2-[hydroxy(3-methylpyridin-4-yl)methyl]phenol] |
|  | < 30 | NC(c1cn[nH]c1)c1c(O)ccc(Cl)c1Cl (centres unmarked) [Compound 7, 2-[amino(1H-pyrazol-4-yl)methyl]-3,4-dichlorophenol] |
| < 10 |  | Cc1cc(O)c([C@H](C)NC(=O)C2CNC2)cc1Cl [Compound 82, N-[(1S)-1-(5-chloro-2-hydroxy-4-methylphenyl)ethyl]azetidine-3-carboxamide] |
